Test results: ChEMBL document CHEMBL4177765, “Structure-Based Design of Inhibitors Targeting PrfA, the Master Virulence Regulator of Listeria monocytogenes” (J Med Chem, 2018)
Active and inactive are the calls of the source. The calls are words filed in the database; no cut-off is given here.

What was measured:
[1] = target: T1, Listeriolysin regulatory protein (Listeria monocytogenes serovar 1/2a (strain ATCC BAA-679 / EGD-e), UniProt P22262); assay: Binding affinity to Listeria monocytogenes 6-His-tagged PrfA expressed in Escherichia coli BL21 (DE3) pLysS assessed as inhibition of protein binding with biotinylated hpt-DNA by SPR method
T1 sequence (P22262 whole entry): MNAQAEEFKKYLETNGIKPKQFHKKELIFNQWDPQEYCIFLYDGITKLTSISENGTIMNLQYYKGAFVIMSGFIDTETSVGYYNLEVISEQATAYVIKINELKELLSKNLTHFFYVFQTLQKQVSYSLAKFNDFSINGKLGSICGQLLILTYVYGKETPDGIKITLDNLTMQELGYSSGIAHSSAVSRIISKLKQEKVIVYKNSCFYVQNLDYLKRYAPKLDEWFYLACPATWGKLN

[2] = target: T2, Listeriolysin regulatory protein (Listeria monocytogenes serovar 1/2a (strain ATCC BAA-679 / EGD-e)) (UniProt P22262); assay: Inhibition of PrfA in Listeria monocytogenes EGD-e assessed as downregulation of LLO expression at 1 uM by Western blot method
T2 sequence (whole entry): T1 sequence (P22262 whole entry)

[3] = target: T2, Listeriolysin regulatory protein (Listeria monocytogenes serovar 1/2a (strain ATCC BAA-679 / EGD-e)); assay: Inhibition of PrfA in Listeria monocytogenes EGD-e assessed as downregulation of ActA expression at 10 uM by Western blot method
[4] = target: T2, Listeriolysin regulatory protein (Listeria monocytogenes serovar 1/2a (strain ATCC BAA-679 / EGD-e)); assay: Inhibition of PrfA in Listeria monocytogenes EGD-e assessed as downregulation of ActA expression at 1 uM by Western blot method
[5] = target: T2, Listeriolysin regulatory protein (Listeria monocytogenes serovar 1/2a (strain ATCC BAA-679 / EGD-e)); assay: Inhibition of PrfA in Listeria monocytogenes EGD-e assessed as downregulation of LLO expression at 10 uM by Western blot method
[6] = target: T2, Listeriolysin regulatory protein (Listeria monocytogenes serovar 1/2a (strain ATCC BAA-679 / EGD-e)); assay: Binding affinity to GFP expressing Listeria monocytogenes EGD-e PrfA expressed in Escherichia coli assessed as inhibition of bacterial uptake in human Caco2 cells at 20 uM incubated for 4 hrs by flow cytometric method relative to (R)-8-cyclopropyl-7-(naphthalen-1-ylmethyl)-5-oxo-3,5-dihydro-2H-thiazolo[3,2-a]pyridine-3-carboxylic acid
[7] = target: T2, Listeriolysin regulatory protein (Listeria monocytogenes serovar 1/2a (strain ATCC BAA-679 / EGD-e)); assay: Binding affinity to Listeria monocytogenes 6-His-tagged PrfA expressed in Escherichia coli BL21 (DE3) pLysS by ITC method
[8] = tested on: Listeria monocytogenes; assay: Effect on growth of Listeria monocytogenes EGD-e at 100 uM after 7 hrs; type: organism-based; conditions: in vivo
[9] = tested on: Listeria monocytogenes; assay: Antivirulence activity against Listeria monocytogenes EGD-e infected in chicken embryo assessed as increase in embryo life span at 5 uM measured over 72 hrs; type: functional
[10] = species on record: Gallus gallus; assay: Toxicity in chicken embryo at 4 to 8 uM measured over 72 hrs; type: organism-based; conditions: in vivo
[11] = tested on: Listeria monocytogenes; assay: Effect on PrfA expression in Listeria monocytogenes EGD-e at 1 uM by Western blot method; type: functional
[12] = target: T2, Listeriolysin regulatory protein (Listeria monocytogenes serovar 1/2a (strain ATCC BAA-679 / EGD-e)); assay: Binding affinity to GFP expressing Listeria monocytogenes EGD-e PrfA expressed in Escherichia coli assessed as inhibition of bacterial uptake in human Caco2 cells at 1 uM incubated for 4 hrs by flow cytometric method relative to control

**Q.** How did the IC50 [1] turn out when `O=C(O)[C@@H]1CSc2c(C3CC3)c(Cc3cccc4ccccc34)cc(=O)n21` was run?
**A.** The IC50 was 4.5 µM.

**Q.** And the inhibition [2]?
**A.** The inhibition was “Active”.

**Q.** What about the inhibition [3] of the same compound?
**A.** The inhibition was “Active”.

**Q.** And the inhibition [4]?
**A.** The inhibition was “Active”.

**Q.** And the inhibition [5]?
**A.** The inhibition was “Active”.

**Q.** How did the fold change (FC) [6] turn out when `Cc1ccc(Cc2cc(=O)n3c(c2C2CC2)SC[C@H]3C(=O)O)c2ccccc12` was run?
**A.** Its fold change (FC) is 0.5.

**Q.** How did the fold change (FC) [6] turn out when `O=C(O)[C@@H]1CSc2c(C3CC3)c(Cc3cnc4ccccc4c3)cc(=O)n21` was run?
**A.** Its fold change (FC) is 13.

**Q.** Which IC50 [1] does the source give for `CN(C)c1c(Cc2cccc3ccccc23)cc(=O)n2c1SCC2C(=O)O.Cl` (racemic) here?
**A.** Its IC50 is 1.8 µM.

**Q.** And the Activity [7]?
**A.** The Activity was “Active”.

**Q.** What about the Activity [8] of the same compound?
**A.** Its Activity is “Non-Toxic”.

**Q.** And the inhibition [2]?
**A.** Its inhibition is “Active”.

**Q.** What about the fold change (FC) [6] of the same compound?
**A.** Its fold change (FC) is 0.7.

**Q.** And the inhibition [3]?
**A.** Its inhibition is “Active”.

**Q.** What about the inhibition [4] of the same compound?
**A.** Its inhibition is “Active”.

**Q.** And the inhibition [5]?
**A.** The inhibition was “Active”.

**Q.** How did the IC50 [1] turn out when `COc1c(Cc2cccc3ccccc23)cc(=O)n2c1SCC2C(=O)O` (racemic) was run?
**A.** Its IC50 is 65.6 µM.

**Q.** And the Activity [7]?
**A.** Its Activity is “Active”.

**Q.** What about the inhibition [2] of the same compound?
**A.** Its inhibition is “inactive”.

**Q.** What about the fold change (FC) [6] of the same compound?
**A.** The fold change (FC) was 7.

**Q.** And the inhibition [3]?
**A.** Its inhibition is “inactive”.

**Q.** What about the inhibition [4] of the same compound?
**A.** Its inhibition is “inactive”.

**Q.** What about the inhibition [5] of the same compound?
**A.** The inhibition was “inactive”.

**Q.** What does the source list for `Cc1cccc(Cc2cc(=O)n3c(c2N(C)C)SCC3C(=O)O)c1C` (racemic)?
**A.** IC50 [1]: 3 µM; Activity [7]: Active; Activity [8]: Non-Toxic; inhibition [2]: Active; fold change (FC) [6]: 0.6; inhibition [3]: Active; inhibition [4]: Active; inhibition [5]: Active

**Q.** How did the fold change (FC) [6] turn out when `C=CCOc1c(Cc2cccc3ccccc23)cc(=O)n2c1SCC2C(=O)O` (racemic) was run?
**A.** Its fold change (FC) is 4.

**Q.** For `CC(=O)Nc1c(Cc2cccc3ccccc23)cc(=O)n2c1SCC2C(=O)O` (racemic), which fold change (FC) [6] is on record?
**A.** Its fold change (FC) is 5.

**Q.** Which fold change (FC) [6] does the source give for `CC(C)COc1c(Cc2cccc3ccccc23)cc(=O)n2c1SCC2C(=O)O` (racemic) here?
**A.** Its fold change (FC) is 4.

**Q.** For `CC(C)Nc1c(Cc2cccc3ccccc23)cc(=O)n2c1SCC2C(=O)O` (racemic), which fold change (FC) [6] is on record?
**A.** Its fold change (FC) is 3.

**Q.** Which fold change (FC) [6] does the source give for `CCOc1c(Cc2cccc3ccccc23)cc(=O)n2c1SCC2C(=O)O` (racemic) here?
**A.** Its fold change (FC) is 5.

**Q.** Which fold change (FC) [6] does the source give for `CCc1cc(=O)n2c(c1N(C)C)SCC2C(=O)O` (racemic) here?
**A.** The fold change (FC) was 10.

**Q.** Which fold change (FC) [6] does the source give for `COC(=O)Nc1c(Cc2cccc3ccccc23)cc(=O)n2c1SCC2C(=O)O` (racemic) here?
**A.** The fold change (FC) was 6.

**Q.** For `CS(=O)(=O)Nc1c(Cc2cccc3ccccc23)cc(=O)n2c1SCC2C(=O)O` (racemic), which fold change (FC) [6] is on record?
**A.** The fold change (FC) was 5.

**Q.** With `CS(=O)(=O)c1c(Cc2cccc3ccccc23)cc(=O)n2c1SCC2C(=O)O` (racemic) as the compound, how does the fold change (FC) [6] read?
**A.** Its fold change (FC) is 7.

**Q.** `Nc1c(Cc2cccc3ccccc23)cc(=O)n2c1SCC2C(=O)O` (racemic) was tested. Which fold change (FC) [6] did it give?
**A.** Its fold change (FC) is 3.

**Q.** Which fold change (FC) [6] does the source give for `O=C(O)C1CSc2c(O)c(Cc3cccc4ccccc34)cc(=O)n21` (racemic) here?
**A.** The fold change (FC) was 5.

**Q.** What does the source list for `Cc1ccc(Cc2cc(=O)n3c(c2N(C)C)SCC3C(=O)O)c2ccccc12` (racemic; form 1) [listing 1 of 2 here]?
**A.** IC50 [1]: 1.5 µM; Activity [8]: Non-Toxic; ILS [9]: 6 h; Activity [10]: Non-Toxic

**Q.** Which Activity [7] does the source give for `Cc1ccc(Cc2cc(=O)n3c(c2N(C)C)SCC3C(=O)O)c2ccccc12` (racemic; form 1) [listing 2 of 2 here] here?
**A.** The Activity was “Active”.

**Q.** What about the Activity [11] of the same compound?
**A.** Its Activity is “inactive”.

**Q.** And the inhibition [2]?
**A.** Its inhibition is “Active”.

**Q.** And the fold change (FC) [6]?
**A.** Its fold change (FC) is 0.7.

**Q.** And the inhibition [12]?
**A.** Its inhibition is 90%.

**Q.** And the inhibition [4]?
**A.** The inhibition was “Active”.

**Q.** `Cc1ccc(Cc2cc(=O)n3c(c2N(C)C)SCC3C(=O)O)c2ccccc12.c1c[nH]cn1` (racemic; form 2) was tested. Which ILS [9] did it give?
**A.** Its ILS is 9 h.
